Test results taken from article PMC5608427, “Convergent evolution involving dimeric and trimeric dUTPases in pathogenicity island mobilization” (PLoS Pathogens, 2017).

Tests used:
ϕDI Dut-Stl complex [1] = target: T1, ϕDI Dut-Stl complex (Staphylococcus aureus, UniProt A0A2D0TC87); assay: Native-PAGE, disruption of Dut-Stl complex; format: binding; conditions: equimolar Dut and Stl; dUMP up to 1 mM
T1 construct: His-tagged Dut and purified Stl, E. coli; 1:1 molar ratio of Dut and Stl; with SaPIbov1 master repressor Stl (Staphylococcus aureus pathogenicity island SaPIbov1)

[2] = test system: T2, ϕNM1 Dut (dimeric dUTPase); assay: Malachite Green phosphate assay; format: biochemical, Staphylococcus phage phiNM1; conditions: 3-400 μM dUTP; 25°C; free Dut, no Stl; decimal comma (17.5)
T2 construct: His-tagged, pET-28a, E. coli BL21(DE3)
Excerpt: Malachite Green phosphate assay on ϕNM1 Dut (dimeric dUTPase)

[3] = test system: T3, ϕO11 Dut (dimeric dUTPase); assay: Malachite Green phosphate assay; format: biochemical, Staphylococcus phage phiO11; conditions: 3-400 μM dUTP; 25°C; free Dut, no Stl; decimal comma (17.4)
T3 construct: His-tagged, pET-28a, E. coli BL21(DE3); not the trimeric Dut of phage ϕ11
Excerpt: Malachite Green phosphate assay on ϕO11 Dut (dimeric dUTPase)

[4] = test system: T4, ϕDII Dut (dimeric dUTPase); assay: Malachite Green phosphate assay; format: biochemical, Staphylococcus phage phiDII; conditions: 3-400 μM dUTP; 25°C; free Dut, no Stl; decimal comma (11.1)
T4 construct: His-tagged, pET-28a, E. coli BL21(DE3)
Excerpt: Malachite Green phosphate assay on ϕDII Dut (dimeric dUTPase)

[5] = test system: T5, ϕ55 Dut (dimeric dUTPase); assay: Malachite Green phosphate assay; format: biochemical, Staphylococcus phage 55; conditions: 3-400 μM dUTP; 25°C; free Dut, no Stl; decimal comma (13.6)
T5 construct: His-tagged, pET-28a, E. coli BL21(DE3)
Excerpt: Malachite Green phosphate assay on ϕ55 Dut (dimeric dUTPase)

[6] = target: T6, ϕDI Dut (dimeric dUTPase) (Staphylococcus aureus, UniProt A0A2D0TC87); assay: X-ray crystallography, […] Å; format: binding; conditions: Mg2+; active site, two Mg2+ per nucleotide
T6 construct: His-tagged, pET-28a, E. coli BL21(DE3); homodimer; eight helices, residues 7-163 in helices

ϕDI Dut-Stl complex [7] = target: T1, ϕDI Dut-Stl complex; assay: Native-PAGE, disruption of Dut-Stl complex; conditions: equimolar Dut and Stl (17 μM); 4°C electrophoresis; competes with Stl binding to Dut
Excerpt: Native-PAGE, disruption of Dut-Stl complex on ϕDI Dut-Stl complex | competing away the dimeric ϕDI Dut from binding to the SaPI Stl repressor, with an IC50

[8] = target: T6, ϕDI Dut (dimeric dUTPase); assay: isothermal titration calorimetry; format: binding; conditions: 50 mM HEPES pH 7.5, 250 mM NaCl, 5 mM MgCl2, 25°C; single-site model; read-out: dissociation constant
Excerpt: isothermal titration calorimetry on ϕDI Dut (dimeric dUTPase) | used to calculate the dissociation constant of ϕDI and ϕDI^A73L Duts against dUPNPP

[9] = target: SaPIbov1-encoded Stl repressor (Staphylococcus aureus (pathogenicity island SaPIbov1)); assay: native gel or EMSA

Molecule: O=c1ccn([C@H]2C[C@H](O)[C@@H](COP(=O)(O)O)O2)c(=O)[nH]1 [dUMP]
- Native-PAGE, disruption of Dut-Stl complex (ϕDI Dut-Stl complex [1]): only a weak reduction in ϕDI Dut-Stl binding was observed

Molecule: O=c1ccn([C@H]2C[C@H](O)[C@@H](COP(=O)(O)OP(=O)(O)OP(=O)(O)O)O2)c(=O)[nH]1 [dUTP]
- Km [2]: 17.5 µM
- Km [3]: 17.4 µM
- Km [4]: 11.1 µM
- Km [5]: 13.6 µM

Molecule: O=c1ccn([C@H]2C[C@H](O)[C@@H](COP(=O)(O)NP(=O)(O)OP(=O)(O)O)O2)c(=O)[nH]1 [dUPNPP, 2-Deoxyuridine-5-[(α,β)-imido]triphosphate]
- X-ray crystallography, 2.1 Å [6]: structure of the ϕDI Dut in complex with dUPNPP
- IC50 (ϕDI Dut-Stl complex [7]): 13.9 µM
- Kd [8]: 4.9 µM

Molecule: dimeric dUTPase (Dut) from S. aureus phage ϕO11 (enzyme)
- stoichiometry N (Dut:Stl molar ratio) [9]: 1

Molecule: dimeric dUTPase (Dut) from S. aureus phage ϕDI (enzyme)
- stoichiometry N (Dut:Stl molar ratio) [9]: 1
